Laboratory results taken from publication PMC5626031, “Differential inhibition of adenylylated and deadenylylated forms of M. tuberculosis glutamine synthetase as a drug discovery platform” (PLoS ONE, 2017).
Where “and” joins values, the source holds several entries; their conditions need not be identical. Identical values can stand only once. Entries after “also recorded” stand apart in the source; their conditions may differ. Like-named read-outs stand apart in the source and are kept apart here.

How the values were obtained:
adenylylated MtbGS = target: T1, adenylylated MtbGS (Mycobacterium tuberculosis, UniProt P9WN39); test: biochemical; type: biochemical, M. tuberculosis; settings: for inhibition at 10 µM: 10μM final concentration; for Selectivity for adenylylated vs deadenylylated MtbGS: from % inhibition at 10μM of both enzyme forms
T1 construct: made in house; host or cells: E. coli YMC11E(DE3) with pTBSK and pTBglnE
T1 sequence (P9WN39 2-478 limits assumed): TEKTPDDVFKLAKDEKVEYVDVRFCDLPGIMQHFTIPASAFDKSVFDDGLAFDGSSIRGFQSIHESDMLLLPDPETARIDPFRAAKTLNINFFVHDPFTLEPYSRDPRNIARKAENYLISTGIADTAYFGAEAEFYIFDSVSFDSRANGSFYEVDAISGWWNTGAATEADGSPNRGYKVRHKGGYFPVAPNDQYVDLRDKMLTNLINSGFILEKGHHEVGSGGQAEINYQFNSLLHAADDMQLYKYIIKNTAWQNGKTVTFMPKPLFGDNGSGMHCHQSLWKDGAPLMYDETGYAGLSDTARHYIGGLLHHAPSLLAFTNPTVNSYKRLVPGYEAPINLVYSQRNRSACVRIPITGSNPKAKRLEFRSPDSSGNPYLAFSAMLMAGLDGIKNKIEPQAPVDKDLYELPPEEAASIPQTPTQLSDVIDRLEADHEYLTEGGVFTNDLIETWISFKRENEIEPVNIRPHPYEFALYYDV

deadenylylated MtbGS = target: T2, deadenylylated MtbGS (Mycobacterium tuberculosis, UniProt P9WN39); test: biochemical; parameters: species or system M. tuberculosis; settings: for inhibition at 10 µM: 10μM final concentration
T2 construct: made in house; host or cells: E. coli YMC11E with pTBSK
T2 sequence (P9WN39 2-478 limits assumed): as above

[1] = system: M.tb H37Rv reference strain; test: BACTEC 460TB assay of mycobacterial growth; type: cell-based, Mycobacterium tuberculosis; settings: for Activity against M.tb H37Rv, in words: 100 μM final concentration; for Growth inhibition of M.tb H37Rv (percentage of growth index): 100 μM, day 6 of incubation, relative to control cultures
[2] = system: M.tb (Beijing220) in mouse bone-marrow derived macrophages; test: Intracellular M.tb in mouse bone-marrow derived macrophage assay; type: cell-based, Mycobacterium tuberculosis; settings: for Activity against intracellular M.tb (Beijing220), in words / Percentage killing of intracellular M.tb (Beijing220), Fig 7: 100 μM; for Activity against intracellular M.tb (Beijing220), in words: Fig 7; for Percentage killing of intracellular M.tb (Beijing220), Fig 7: MOI 2:1, drug on day 4 post infection, harvest day 2 post drug, first experiment (8 selective compounds)
[3] = system: M.tb H37Rv reference strain (ATCC 25618); parameters: method as in PMID 9145860; settings: approximately 10x higher than the minimal inhibitory concentrations; cited from earlier work
[4] = system: M.tb (Beijing220) clinical isolate; settings: cited from earlier work
M. tuberculosis = settings: both in vitro and in vivo; cited from earlier work
[5] = pre-incubation protocol, average over the 4 screens, read-out: Adenylated Mtb GS (% inhibition) AVG
[6] = pre-incubation protocol, screen 1, read-out: Adenylated Mtb GS (% inhibition) Screen 1
[7] = pre-incubation protocol, screen 2, read-out: Adenylated Mtb GS (% inhibition) Screen 2
[8] = pre-incubation protocol, screen 3, read-out: Adenylated Mtb GS (% inhibition) Screen 3
[9] = pre-incubation protocol, screen 4, read-out: Adenylated Mtb GS (% inhibition) Screen 4
[10] = pre-incubation protocol, average over the 4 screens, read-out: Deadenylated Mtb GS (% inhibition) AVG
[11] = pre-incubation protocol, screen 1, read-out: Deadenylated Mtb GS (% inhibition) Screen 1
[12] = pre-incubation protocol, screen 2, read-out: Deadenylated Mtb GS (% inhibition) Screen 2
[13] = pre-incubation protocol, screen 3, read-out: Deadenylated Mtb GS (% inhibition) Screen 3
[14] = pre-incubation protocol, screen 4, read-out: Deadenylated Mtb GS (% inhibition) Screen 4
[15] = dose-response assay, pre-incubation protocol, single assay values, read-out: IC50, adenylylated MtbGS
[16] = dose-response assay, pre-incubation protocol, single assay values
[17] = dose-response assay, enzyme form not given, read-out: IC50 concentration, MtbGS

SMILES | inhibition at 10 µM (adenylylated MtbGS; [5]) [%] | inhibition at 10 µM (adenylylated MtbGS; [6]) [%] | inhibition at 10 µM (adenylylated MtbGS; [7]) [%] | inhibition at 10 µM (adenylylated MtbGS; [8]) [%] | inhibition at 10 µM (adenylylated MtbGS; [9]) [%] | inhibition at 10 µM (deadenylylated MtbGS; [10]) [%] | inhibition at 10 µM (deadenylylated MtbGS; [11]) [%] | inhibition at 10 µM (deadenylylated MtbGS; [12]) [%] | inhibition at 10 µM (deadenylylated MtbGS; [13]) [%] | inhibition at 10 µM (deadenylylated MtbGS; [14]) [%] | Activity against M.tb H37Rv, in words [1] | also measured
NC(CCS(=O)(=O)O)C(=O)O (stereo not shown) [Compound 5] | 38 | 48 | 33 | 40 | 29 | 2 | 0 | 0 | 6 | 0 |  | 
CP(=O)(O)CC[C@H](N)C(=O)O [PhosT, phosphinotricin, reference compound] | 98 | 100 | 95 | 97 | 100 | 100 | 100 | 98 | 100 | 100 |  | IC50 (adenylylated MtbGS; [15]): 0.016 µM; IC50 (deadenylylated MtbGS; [16]): 0.83 µM
Nc1nc(N)c(NC(=O)c2ccccc2)c(O)n1 [Compound 5009] | 40 | 37 | 50 | 50 | 22 | 47 | 57 | 41 | 44 | 44 | no activity | 
O=NN(Cc1ccccc1)c1cc(N2CCCC2)ncn1 [Compound 5045] | 0 | 0 | 0 | 0 | 0 | 48 | 44 | 45 | 54 | 48 |  | Selectivity for adenylylated vs deadenylylated MtbGS (adenylylated MtbGS): significant selectivity for the deadenylylated MtbGS; also recorded: deadenylylated selective; also recorded: specific to the de-adenylylated form of GS; Growth inhibition of M.tb H37Rv (percentage of growth index) [1]: 98%; Percentage killing of intracellular M.tb (Beijing220), Fig 8 ([2]; 100 μM for 2 days, second experiment at 10, 50 and 100 μM): 73%; Activity against intracellular M.tb (Beijing220), in words [2]: moderate activity; Percentage killing of intracellular M.tb (Beijing220), Fig 7 [2]: 64%
COc1ccc(-c2nc3ccccn3c2Nc2c(C)cccc2C)cc1OC [Compound 10059] | 91 | 82 | 99 | 82 | 100 | 44 | 49 | 48 | 36 | 43 |  | IC50 (adenylylated MtbGS; [17]): < 100 µM; Selectivity for adenylylated vs deadenylylated MtbGS (adenylylated MtbGS): GS-adenylylated specific; IC50 (deadenylylated MtbGS; [16]): 13.2 µM and 17.1 µM; Activity against intracellular M.tb (Beijing220), in words [2]: moderate activity; Percentage killing of intracellular M.tb (Beijing220), Fig 7 [2]: 54%
CC[C@@H](CO)NCCN[C@@H](CC)CO [ethambutol] |  |  |  |  |  |  |  |  |  |  |  | Breakpoint concentration to which the H37Rv strain was sensitive [3]: 9.4 µg/mL
O=C1NC(C(=O)O)=C(C(=O)O)C(c2ccc([N+](=O)[O-])cc2)N1 (stereo not shown) [Compound 5012] | 40 | 55 | 31 | 32 | 42 | 15 | 14 | 16 | 4 | 24 | no activity | 
OCCNc1cc(N2CCCC2)ncn1 [Compound 5024] | 43 | 46 | 48 | 43 | 36 | 47 | 49 | 44 | 52 | 44 | no activity | 
Cc1nc(N)cc(C[n+]2csc(CCOP(=O)(O)O)c2C)n1 [Compound 5016] | 43 | 51 | 43 | 46 | 30 | 11 | 7 | 19 | 3 | 13 | no activity | 
Nc1nc(O)c2ccccc2n1 [Compound 12004] | 34 | 39 | 32 | 33 | 30 | 42 | 50 | 43 | 38 | 38 | no activity | 
NNC(=O)c1ccncc1 [isoniazid] |  |  |  |  |  |  |  |  |  |  |  | Breakpoint concentration to which the H37Rv strain was sensitive [3]: 0.25 µg/mL; Susceptibility of the Beijing220 clinical isolate [4]: resistant
CO[C@H]1/C=C/O[C@@]2(C)Oc3c(C)c(O)c4c(O)c(c(/C=N/N5CCN(C)CC5)c(O)c4c3C2=O)NC(=O)/C(C)=C\C=C\[C@H](C)[C@H](O)[C@@H](C)[C@@H](O)[C@@H](C)[C@H](OC(C)=O)[C@@H]1C [rifampicin] |  |  |  |  |  |  |  |  |  |  |  | Breakpoint concentration to which the H37Rv strain was sensitive [3]: 2.0 µg/mL; Susceptibility of the Beijing220 clinical isolate [4]: resistant
O=C(O)c1ccncc1 [Compound 5002] | 45 | 68 | 40 | 38 | 35 | 8 | 0 | 10 | 8 | 14 | no activity | 
CS(=N)(=O)CC[C@H](N)C(=O)O (stereo partly drawn) [MSO, L-methionine-S,R-sulphoximine, reference compound] |  |  |  |  |  |  |  |  |  |  |  | Adenylated Mtb GS (% inhibition) AVG (adenylylated MtbGS): 99%; Adenylated Mtb GS (% inhibition) Screen 1 (adenylylated MtbGS): 100%; Adenylated Mtb GS (% inhibition) Screen 2 (adenylylated MtbGS): 100%; Adenylated Mtb GS (% inhibition) Screen 3 (adenylylated MtbGS): 96%; Adenylated Mtb GS (% inhibition) Screen 4 (adenylylated MtbGS): 100%; IC50 (adenylylated MtbGS; read-out: IC50, adenylylated MtbGS): 0.16 µM; Deadenylated Mtb GS (% inhibition) AVG (deadenylylated MtbGS): 100%; Deadenylated Mtb GS (% inhibition) Screen 1 (deadenylylated MtbGS): 100%; Deadenylated Mtb GS (% inhibition) Screen 2 (deadenylylated MtbGS): 100%; Deadenylated Mtb GS (% inhibition) Screen 3 (deadenylylated MtbGS): 99%; Deadenylated Mtb GS (% inhibition) Screen 4 (deadenylylated MtbGS): 100%; IC50 (deadenylylated MtbGS): 1.6 µM; Growth of M. tuberculosis (M. tuberculosis): inhibits growth
Cc1cccc(C)c1Nc1c(C(C)C)nc2ccccn12 [Compound 10057] | 99 | 100 | 99 | 98 | 100 | 59 | 67 | 62 | 47 | 58 |  | IC50 (adenylylated MtbGS; [15]): 3.51 µM and 15.6 µM; IC50 (adenylylated MtbGS; [17]): < 100 µM; Selectivity for adenylylated vs deadenylylated MtbGS (adenylylated MtbGS): GS-adenylylated specific; Growth inhibition of M.tb H37Rv (percentage of growth index) [1]: 53%; Activity against intracellular M.tb (Beijing220), in words [2]: moderate activity; Percentage killing of intracellular M.tb (Beijing220), Fig 7 [2]: 65%
c1ccc(CNc2cc(N3CCCC3)ncn2)cc1 [Compound 5029] | 60 | 79 | 46 | 56 | 60 | 7 | 5 | 8 | 7 | 9 |  | Selectivity for adenylylated vs deadenylylated MtbGS (adenylylated MtbGS): GS-adenylylated specific; Growth inhibition of M.tb H37Rv (percentage of growth index) [1]: 66%; Activity against intracellular M.tb (Beijing220), in words [2]: moderate activity; Percentage killing of intracellular M.tb (Beijing220), Fig 7 [2]: 67%
